The record followed here is US20090081170A1, “Cardiac progenitor cells” (priority 2007, published 2009).

Holding throughout (type): cell-based, mouse
For assay [1], the system named is adult heart explants (adult EPDCs). Description: Adult epicardial explant culture: EPDC outgrowth and differentiation. The method, then:
A simple protocol for the outgrowth and differentiation of vasculogenic precursor cells (endothelial and vascular smooth muscle cells) from adult heart using Thymosin β4 to stimulate epicardial cell migration is described below.
• 1. Coat 6-well plates with gelatin: pipette 2 ml 0.1% gelatin solution, allow to stand for 15 minutes and aspirate. Optionally, place coverslips into wells, prior to gelatin coating. • 2. Cull adult mouse by cervical dislocation. • 3. Using sterile forceps and scissors make a lateral incision in the centre of the abdomen and tear back the fur to expose the rib cage. • 4. Carefully cut upwards through the sternum and along the diaphragm, taking care not to cut into the heart. Pull back the ribs to reveal the heart. • 5. Remove the heart using forceps and dissect away the atria and major vessels, to leave right and left ventricles. • 6. Place tissue in a 60 mm tissue culture dish (non gelatin coated) containing 2 ml DPBS. Cut into quarters and allow blood to rinse from the tissue. Carefully aspirate away DPBS. Using a sterile scalpel, cut the heart into pieces of approximately 1 mm^3. Reproducible EPDC outgrowth strongly depends upon the size of the heart pieces (optimally 1 mm^3). Larger pieces will not adhere to permit sufficient migration while smaller pieces tend to dissociate completely and cardiomyocyte death precedes adherence and EPDC outgrowth. • 7. Divide heart pieces into 4 equal portions (1 adult heart is typically divided between 4 wells for optimal EPDC outgrowth). • 8. Pipette 2 ml of EPDC culture medium, supplemented with 100 ng/ml Tβ4, into each well to be used. • 9. Place 1 portion of heart tissue into the centre of each well and ensure that all pieces are submerged. • 10. Gently transfer the plate to a humidified 5% CO2 37° C. incubator. Maintain cultures with minimum disturbance to allow explants to adhere. No feeding is required for the first 72 hours. Minimal disturbance is absolutely essential for EPDC outgrowth. Explants adhere only tenuously in the first instance and disturbance in the first few days of culture will prevent adhesion or lead to detachment. Plates should be transferred extremely cautiously between incubator and microscope or culture hood. After sufficient EPDCs have emerged, explants attach more firmly but care is still required as detachment may easily occur. • 11. After 72 hours in culture, carefully transfer plate to culture hood, wash explants gently with DPBS and add 2 ml fresh EPDC medium containing 100 ng/ml Tβ4. Leave for a further 24 hours before assessment of cellular phenotype.
• 1. Culture adult heart explants as described above. • 2. After 72 hours of culture, fix cells with 4% PFA for 10 minutes at room temperature. • 3. Wash cells twice with PBS. • 4. Permeabilise cells with 0.5% Triton X-100 in PBS for 5 minutes at room temperature. • 5. Wash cells twice with PBS. • 6. Block non-specific binding by incubating cells in BLOCK (1% BSA/10% sheep serum in PBS) for 1 hour at room temperature. • 7. Incubate cells with an appropriate dilution of primary antibody (epicardin, 1:100; SMalphaA, 1:700; Flk1, 1:100), or Procollagen type I, 1:100), in BLOCK. • 8. Wash cells 3 times using BLOCK. • 9. Incubate cells with the appropriate secondary antibody (epicardin: Cy3-conjugated anti-rabbit; SMalphaA: FITC-conjugated anti-mouse, 1:30; Procollagen type I: Alexa 488-conjugated anti-goat, 1:200; Flk1: Alexa 594-conjugated anti-rat, 1:200) diluted in BLOCK. • 10. Wash cells twice in PBS. • 11. Optionally, to stain nuclei, incubate with 5 ug/ml Hoechst in PBS for 5 minutes at room temperature. • 12. Wash cells twice in PBS. • 13. Mount coverslips onto microscope slides using 50% glycerol in PBS as mountant and visualize using a fluorescence microscope. […]

In assay [2] the test system is epicardial explants from E10.5 hearts. Description: Embryonic epicardial explant cultures. Particulars: E10.5 explants. The source says:
In order to support our in vivo phenotype analyses and assess a direct effect of Tβ4 on developing epicardium, we established epicardial explant cultures from wild-type hearts13. We initially derived epicardial explants from stages E10.5 to E16.5 and postnatal day 1 (P1) neonates, treated with either, Tβ4, with VEGF and FGF7 [59], or a combination of Tβ4 and growth factors. Explants from E10.5 hearts, coincident with the formation of the epicardium, produced extensive outgrowths that differentiated into SMαA- and Tie2-positive cells (FIG. 3 b).

Another assay deals with Akt (P-Ser 473). Description: Tβ4 treatment of C2C12 myoblast cells, Akt phosphorylation. Conditions: C2C12 myoblasts, Tβ4 10 ng/ml. The method, then:
Western blotting was performed using standard methods (Tris-Tricine 4-20% gradient SDS-PAGE for blotting of Tβ4 or Tβ10 peptides and Tris-glycine SDS-PAGE for all other proteins) using antibodies against Tβ4 (abcam), Tβ10 (Biodesign International), Tie-2 (Santa Cruz), SMαA (Sigma), GAPDH (Chemicon), Caspase-8 (Santa Cruz), Cleaved caspase-3, total Akt and Phospho-Akt (both Cell Signalling Technology).
C2C12 cells were cultured in DMEM containing 10% FBS. Tβ4 (10 ng/ml, mmundiagnostik AG) was added and cells harvested over a time course to assess the degree of phosphorylation (activation) of Akt.

Some results are limits rather than exact numbers.

Consider Thymosin β4 [Tβ4], for which, in assay [1] (Gata5-EYFP lineage trace explant cultures, mean +/− SEM, n=12 explants), the “percentage incidence of myocardial progenitors (cells positive for Isl-1/Nkx2.5/Gata4)” value is given as 5.3+/−1.9%. The “EPDCs positive for Tbx18 and Raldh2” value in assay [1] (adult epicardial explants, immunofluorescence) is “significant number of proliferative, migrating EPDCs positive for Tbx18 and Raldh2”. Also, the “differentiation of emerging epicardin-positive cells” value in assay [1] (adult explants, immunofluorescence) was “differentiated with migration into procollagen type I—, SMαA- and Flk1 (VEGF receptor)-positive cells”. Also, the “EPDC outgrowth from adult heart explants” value in assay [1] (adult mouse heart explants, 8-12 weeks, vs untreated explants) is “stimulated extensive outgrowth of cells”. Also, the “numbers of SMαA- and Tie2-positive cells” value in assay [2] was “significantly increased”. In addition, in the assay on Akt (P-Ser 473), the “time to Akt activation (P-Ser 473)” value was no more than 10 min.
